From PMC2806602 (The Journal of neuroscience : the official journal of the …, 2009) come the findings set out here.

Molecules are shown by their SMILES. Where a chain is given by its changes, count along the chain named.

In one experiment the target is T1, GluRδ2^Lc E531C+D782C (Rattus norvegicus, UniProt Q63226, A654T/D782C/E531C).
T1 sequence (Q63226 24-1007 E531C/A654T/D782C): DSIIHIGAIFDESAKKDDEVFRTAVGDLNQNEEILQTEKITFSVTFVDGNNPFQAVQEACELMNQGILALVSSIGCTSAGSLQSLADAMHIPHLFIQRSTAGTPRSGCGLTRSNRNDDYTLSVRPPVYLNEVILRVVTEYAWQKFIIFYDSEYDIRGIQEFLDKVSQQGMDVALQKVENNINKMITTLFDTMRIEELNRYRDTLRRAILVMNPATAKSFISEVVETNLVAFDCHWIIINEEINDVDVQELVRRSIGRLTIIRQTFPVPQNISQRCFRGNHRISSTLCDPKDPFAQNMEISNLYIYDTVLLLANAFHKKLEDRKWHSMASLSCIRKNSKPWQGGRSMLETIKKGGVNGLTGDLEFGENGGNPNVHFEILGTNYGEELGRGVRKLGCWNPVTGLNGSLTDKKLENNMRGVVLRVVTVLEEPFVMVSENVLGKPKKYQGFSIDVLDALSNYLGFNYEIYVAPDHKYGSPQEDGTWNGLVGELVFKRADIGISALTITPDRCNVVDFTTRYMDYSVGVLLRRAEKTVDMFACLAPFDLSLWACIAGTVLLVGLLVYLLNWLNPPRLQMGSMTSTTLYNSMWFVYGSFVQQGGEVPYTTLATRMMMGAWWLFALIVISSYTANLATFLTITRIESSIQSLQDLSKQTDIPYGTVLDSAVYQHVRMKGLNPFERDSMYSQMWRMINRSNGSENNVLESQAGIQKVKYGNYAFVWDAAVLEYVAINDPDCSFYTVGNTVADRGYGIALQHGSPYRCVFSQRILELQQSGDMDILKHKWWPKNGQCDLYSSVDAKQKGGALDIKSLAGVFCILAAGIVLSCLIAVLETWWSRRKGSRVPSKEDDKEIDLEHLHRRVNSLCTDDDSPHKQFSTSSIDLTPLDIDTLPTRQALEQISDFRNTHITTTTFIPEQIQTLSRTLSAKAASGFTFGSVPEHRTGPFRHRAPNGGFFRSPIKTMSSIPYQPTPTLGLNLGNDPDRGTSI
As to the kind of experiment: Two-electrode voltage-clamp recordings in Xenopus oocytes, GluRδ2^Lc E531C+D782C. It is filed as cell-based.

The next experiment addresses T2, GluRδ2^Wt C811S (Rattus norvegicus, UniProt Q63226, C811S).
T2 sequence (Q63226 24-1007 C811S): T1 sequence (Q63226 24-1007 E531C/A654T/D782C) with C508E, T631A, C759D, C788S
Kind of experiment: Two-electrode voltage-clamp recordings in Xenopus oocytes, GluRδ2^Wt C811S. Format: cell-based. Conditions: data not shown.

On to `[Ca+2]` [Ca^2+, calcium], for which the “Ca^2+ potentiation (relative to baseline)” value at GluRδ2^Lc E531C+D782C (3 mM Ca^2+, ± SEM) stood at 0.9 ± 0.01 fold.
On to `N[C@H](CO)C(=O)O` [D-serine], for which the “response to D-serine” value at GluRδ2^Wt C811S is reported as “Neither the C811S mutation nor the triple P528C+L789C+C811S mutation resulted in measurable responses”. Besides, the “D-serine + 0 mM Ca^2+ nH” value on GluRδ2^Lc E531C+D782C (Hill slope, 0 mM Ca^2+) is reported as 0.8. Also, the “D-serine + 3 mM Ca^2+ nH” value on GluRδ2^Lc E531C+D782C (Hill slope, 3 mM Ca^2+) came to 0.8.
